Laboratory results: patent US8158389B2, “Products and methods for in vivo secretion of monatin” (priority 2005, dated 2012)
Several values for one entry are separate records, joined by “and”; a condition that tells them apart may be missing. Identical values can stand only once.

How the values were obtained:
[1] = test system: E. coli MG1655::pCECNde/4978 DAT/SEQ ID NO. 42; test: R,R monatin excreted by E. coli with D-amino acid treatment; format: cell-based, Escherichia coli; settings: 5 mM D-amino acid treatment added 3 hours following induction
Experimental: For inoculum preparation, the E. coli MG1655 : : pCECNde/4978 DAT/SEQ ID NO. 42 were grown overnight at 37° C. with shaking at 250 rpm in Luria-Bertani (“LB”) medium with 25 μg/mL chloramphenicol. For the experimental treatments, Trp-1+glucose medium, a minimal medium that has been used for increased production of tryptophan in E. coli cells (Zeman et al. Folia Microbiol. 35:200-4, 1990), was prepared as follows. To 800 mL nanopure water the following reagents were added: 2 g (NH4)2SO4, 13.6 g KH2PO4. The pH was adjusted to 7.0, the volume was increased to 948 mL, and the medium was autoclaved. Following sterilization, 0.2 g MgSO4.7H2O, 0.01 g CaCl2.2H2O, and 0.5 mg FeSO4.7H2O were added to the medium in a 1.8 mL volume followed by addition of 0.2 mL of Neidhardt's micronutrient solution (Neidhardt F. C., Bloch P. L., and Smith D. F., 1974. Culture medium for Enterobacteria. J. Bacteriol. 119: 736-746). Neidhardt's medium includes (per liter): 0.18 g (NH4)6(MO7)24.4H2O, 1.24 g H3BO3, 0.36 g CoCl2.6H2O, 0.12 g CuSO4 (anhydrous), 0.8 g MnCl2.4H2O, and 0.14 g ZnSO4.7H2O. A 50% glucose solution was prepared separately and sterile-filtered. […]
The monatin from the 48 hour samples was concentrated via a solid phase extraction (“SPE”) column (see Example 27). Then, the R,R and S,S stereoisomers were analyzed by the method of Example 13.

[2] = test system: E. coli BL21 DE3 aspC/proA on pET30; test: Monatin excretion with glucose or malate as carbon source; format: cell-based, Escherichia coli
Experimental: For inoculum, E. coli BL21 DE3 aspC/proA on pET30 was grown overnight in LB medium with 50 μg/mL kanamycin at 37° C. and 250 rpm. For the experimental treatments, Trp-1 medium, as described in Example 6 (Zeman, et al. Folia Microbiol. 35:200-204, (1990)), and 50 μg/mL kanamycin was used. Malate and glucose were 4 g/L initially for their respective treatments. For treatment flasks, 2.2 v/v % of inoculum was added to 50 mL medium volume in 250 mL baffled shake flasks. For glucose treatments, induction of the monatin operon was initiated at 0.8 OD600 nm. For malate treatments, induction was at 0.25 OD. At induction, 0.5 mM IPTG, 0.5 mM pyridoxine hydrochloride, and 0.2 mL of Balch's vitamins (Balch, W. E., et al., “Methanogens: reevaluation of a unique biological group,” Microbiol. Rev. 43:260-296 (1979)) were added. Temperature was reduced to 30° C. at induction.

[3] = test system: E. coli BL21DE3::aspCproApET30; test: Growth (optical density) with CCCP, wild type control; format: cell-based, Escherichia coli; settings: 20 μM CCCP
Experimental: (§1) Single chloramphenicol-resistant colonies were purified by restreaking on appropriate selective media and single colonies were tested by PCR as previously described for the BW25113 knockout strains, to verify the presence of the emrB and acrAB knockouts. The effects of the emrB and acrAB knockouts on the EmrAB and AcrAB transporter systems respectively were determined by assessing the phenotype of the transport mutants using appropriate antibiotics and comparison to wild type control microorganisms as shown in Table 3.1 and Table 3.2 below.

EmrAB efflux pump = biological target: T1, EmrAB efflux pump (Escherichia coli, UniProt P0AEJ0); test: Monatin efflux per dry cell weight after induction of the EmrAB efflux pump with CCCP; format: cell-based; settings: for increase in monatin/dcw: 31 hours, vs control
T1 construct: endogenous in cells; host or cells: E. coli MG1655 with aspC/proA on pProNde; E. coli BL21 (DE3) with aspC/proA on pET30
Experimental: The strains used for the experiment included E. coli MG1655 : : aspC/proA/pProNde and E. coli BL21 (DE3) : : aspC/proA/pET30. For inoculum, the E. coli strains were grown overnight at 37° C. and 250 rpm in Luria-Bertani (“LB”) medium with 50 μg/mL kanamycin.
For the experimental treatments, Trp-1+ glucose medium, a minimal medium that has been used for increased production of tryptophan in E. coli cells (Zeman, et al. Folia Microbiol. 35:200-204, (1990)), was prepared as follows. To 800 mL nanopure water the following reagents were added: 2 g (NH4)2SO4 and 13.6 g KH2PO4. The pH was adjusted to 7.0, the volume was increased to 948 mL, and the medium was autoclaved. Following sterilization, 0.2 g MgSO4.7H2O, 0.01 g CaCl2.2H2O, and 0.5 mg FeSO4.7H2O were added to the medium in a 1.8 mL volume followed by addition of 0.2 mL of Neidhardt's micronutrient solution. Neidhardt, F. C., et al., “Culture medium for Enterobacteria,” J. Bacteriol. 119:736-746 (1974). Neidhardt's medium includes (per liter): 0.18 g (NH4)6(MO7)24.4H2O, 1.24 g H3BO3, 0.36 g CoCl2.6H2O, 0.12 g CuSO4 (anhydrous), 0.8 g MnCl2.4H2O, and 0.14 g ZnSO4.7H2O. A 50% glucose solution was prepared separately and sterile-filtered. Forty mL of glucose solution and 10 mL of 1 M 3-Morpholinopropanesulfonic acid (“MOPS”) buffer were added to the base medium (950 mL) for a 1 L final volume.
Conditions for the treatments included 250 rpm agitation throughout and 37° C. up to induction, then, 30° C. following induction. At 0.5-0.6 OD600 nm, induction of the plasmid genes was initiated. At induction, 0.5 mM IPTG, 0.5% arabinose, 0.5 mM pyridoxine hydrochloride, and 0.2 mL of Balch's vitamins were added. […] Some treatments included 10 μM carbonyl cyanide 3-chlorophenylhydrazone (“CCCP”) addition to initial medium. One treatment included an additional 10 μM CCCP dose at 3.5 hours following induction. CCCP induces the EmrB efflux system. Samples for monatin analysis and dry cell weight determination were taken at 10, 15.5, 25.6 and 31 hours. Monatin analysis was preformed as described in Example 13.
Analyses of mixtures for monatin and tryptophan derived from in vitro or in vivo biochemical reactions were performed using a Waters/Micromass liquid chromatography-tandem mass spectrometry (“LC/MS/MS”) instrument including a Waters 2795 liquid chromatograph with a Waters 996 Photo-Diode Array (PDA) absorbance monitor placed in series between the chromatograph and a Micromass Quattro Ultima triple quadrupole mass spectrometer. LC separations were made using an Xterra MS C8 reversed-phase chromatography column, 2.1 mm×250 mm at 40° C. The LC mobile phase consisted of A) water containing 0.05% (v/v) trifluoroacetic acid and B) methanol containing 0.05% (v/v) trifluoroacetic acid.
The gradient elution was linear from 5% B to 35% B, 0-4 min, linear from 35% B to 60% B, 4-6.5 min, linear from 60% B to 90% B, 6.5-7 min, isocratic at 90% B 7-11 min, linear from 90% B to 95% B, 11-12 min, linear from 95% B to 5% B, 12-13 min, with a 5 min re-equilibration period between runs. The flow rate was 0.25 mL/min, and PDA absorbance was monitored from 200 nm to 400 nm. All parameters of the ESI-MS were optimized and selected based on generation of protonated molecular ions ([M+H]^+) of the analytes of interest, and production of characteristic fragment ions. The following instrumental parameters were used for LC/MS/MS Multiple Reaction Monitoring (“MRM”) analysis of monatin and tryptophan: Capillary: 3.5 kV; Cone: 40 V; Hex 1: 20 V; Aperture: 0 V; Hex 2: 0 V; Source temperature: 100° C.; Desolvation temperature: 350° C.; Desolvation gas: 500 L/h; Cone gas: 50 L/h; Low mass resolution (Q1): 12.0; High mass resolution (Q1): 12.0; Ion energy: 0.2; Entrance: −5 V; Collision Energy: 8; Exit: 1V; Low mass resolution (Q2): 15; High mass resolution (Q2): 15; Ion energy (Q2): 3.5; Multiplier: 650. […]

[4] = test system: E. coli BL21DE3ΔemrB::aspCproApET30; test: Growth (optical density) with CCCP, emrB knockout mutant; format: cell-based, Escherichia coli; settings: 20 μM CCCP
Experimental: as §1

[5] = E. coli BL21 (DE3)::aspCproA pET30, 10 μM CCCP
[6] = E. coli BL21 (DE3)::aspCproA pET30, 10 μM CCCP + 10 μM CCCP
[7] = E. coli MG1655::aspCproA pProNde, 10 μM CCCP

T1 sequence (P02930 23-493): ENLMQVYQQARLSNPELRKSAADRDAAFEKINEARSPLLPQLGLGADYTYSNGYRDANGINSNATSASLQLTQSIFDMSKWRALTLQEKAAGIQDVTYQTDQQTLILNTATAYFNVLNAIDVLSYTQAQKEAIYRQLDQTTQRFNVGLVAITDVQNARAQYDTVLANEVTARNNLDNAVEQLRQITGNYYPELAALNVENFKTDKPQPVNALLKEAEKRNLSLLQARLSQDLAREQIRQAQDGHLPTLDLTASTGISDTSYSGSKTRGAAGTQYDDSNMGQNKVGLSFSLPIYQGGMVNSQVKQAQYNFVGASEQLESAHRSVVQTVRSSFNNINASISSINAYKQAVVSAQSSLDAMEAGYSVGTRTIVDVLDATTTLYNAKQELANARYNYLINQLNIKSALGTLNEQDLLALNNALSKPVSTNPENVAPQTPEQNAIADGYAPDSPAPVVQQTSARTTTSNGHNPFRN
T1 sequence (P0AEJ0 whole entry): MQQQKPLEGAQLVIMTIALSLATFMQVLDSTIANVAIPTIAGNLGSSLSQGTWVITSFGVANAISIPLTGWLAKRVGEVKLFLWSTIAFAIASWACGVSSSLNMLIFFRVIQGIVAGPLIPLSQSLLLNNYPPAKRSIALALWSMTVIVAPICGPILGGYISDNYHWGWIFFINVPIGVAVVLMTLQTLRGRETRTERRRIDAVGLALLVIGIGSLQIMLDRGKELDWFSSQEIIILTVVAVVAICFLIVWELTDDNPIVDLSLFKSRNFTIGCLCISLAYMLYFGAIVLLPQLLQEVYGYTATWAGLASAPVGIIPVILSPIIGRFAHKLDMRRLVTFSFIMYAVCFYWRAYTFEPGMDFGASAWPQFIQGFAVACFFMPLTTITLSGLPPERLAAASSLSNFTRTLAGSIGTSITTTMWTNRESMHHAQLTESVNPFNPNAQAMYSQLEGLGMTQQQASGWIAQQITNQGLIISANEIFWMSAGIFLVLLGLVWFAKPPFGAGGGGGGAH
T1 sequence (P27303 whole entry, further chain): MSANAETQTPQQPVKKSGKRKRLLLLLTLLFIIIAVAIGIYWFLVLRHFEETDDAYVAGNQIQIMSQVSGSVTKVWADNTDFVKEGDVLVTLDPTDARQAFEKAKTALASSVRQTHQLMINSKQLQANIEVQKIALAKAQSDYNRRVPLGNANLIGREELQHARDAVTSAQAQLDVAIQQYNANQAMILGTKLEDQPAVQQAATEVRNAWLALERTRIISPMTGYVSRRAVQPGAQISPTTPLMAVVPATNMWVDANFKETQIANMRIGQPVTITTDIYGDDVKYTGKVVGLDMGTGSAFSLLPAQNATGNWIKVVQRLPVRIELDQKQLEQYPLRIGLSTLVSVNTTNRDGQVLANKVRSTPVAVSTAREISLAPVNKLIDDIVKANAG

N[C@H](CCC(=O)O)C(=O)O [D-glutamate]
48 hour Monatin/dry cell wt., Total Monatin [1]: 0.47 mg/g

O=C(O)CC(O)C(=O)O (stereo not drawn) [malate]
Monatin/dcw, 24 hour average ([2]; carbon source 4 g/L initially, 24 hours post induction): 7.72 mg/g
Monatin/dcw, 24 hours ([2]; carbon source 4 g/L initially, 24 hours post induction, single flasks): 7.19 mg/g and 8.25 mg/g
higher monatin transported per unit biomass ([2]; malate as primary carbon source vs glucose): 23%

N#CC(C#N)=NNc1cccc(Cl)c1 [CCCP, carbonyl cyanide 3-chlorophenylhydrazone]
Optical Density @ 600 nM, 6 hours [3]: 0.034
Optical Density @ 600 nM, 24 hours [3]: 1.113
increase in monatin/dcw (EmrAB efflux pump; E. coli BL21 (DE3)::aspC proA pET30, one addition (10 μM) of CCCP): greater than 1.8 fold
increase in monatin/dcw (EmrAB efflux pump; E. coli BL21 (DE3)::aspC proA pET30, two additions (20 μM) of CCCP): > 3.5 fold
Monatin/dry cell weight at run hour 10 (EmrAB efflux pump; [5]): 6.4 mg/g
Monatin/dry cell weight at run hour 15.5 (EmrAB efflux pump; [5]): 22.5 mg/g
Monatin/dry cell weight at run hour 25.6 (EmrAB efflux pump; [5]): 34.3 mg/g
Monatin/dry cell weight at run hour 31 (EmrAB efflux pump; [5]): 33.0 mg/g
Monatin/dry cell weight at run hour 10 (EmrAB efflux pump; [6]): 16.2 mg/g
Monatin/dry cell weight at run hour 15.5 (EmrAB efflux pump; [6]): 38.0 mg/g
Monatin/dry cell weight at run hour 25.6 (EmrAB efflux pump; [6]): 52.1 mg/g
Monatin/dry cell weight at run hour 31 (EmrAB efflux pump; [6]): 64.2 mg/g
Monatin/dry cell weight at run hour 15.5 (EmrAB efflux pump; [7]): 0.7 mg/g
Monatin/dry cell weight at run hour 25.6 (EmrAB efflux pump; [7]): 6.7 mg/g
Monatin/dry cell weight at run hour 31 (EmrAB efflux pump; [7]): 12.4 mg/g
increase in monatin/dcw (EmrAB efflux pump; E. coli MG1655::aspCproA pProNde): 2 fold
decrease in growth ([4]; deletion strain): eighty fold/ninety nine percent decrease in growth
Optical Density @ 600 nM, 6 hours ([4]; emrB knockout mutant): 0.024
Optical Density @ 600 nM, 24 hours ([4]; emrB knockout mutant): 0.014

C[C@@H](N)C(=O)O [D-alanine]
48 hour Monatin/dry cell wt., Total Monatin [1]: 0.33 mg/g
